Measurements reported in PubChem BioAssay AID248 (DTP/NCI, 2004).
Where “and” joins values, the source holds several entries; their conditions need not be identical. Equal values may be shown once. Inconclusive results and toxic doses are left out. No stated cut-off is given here; in the data, active means T/C of 150% or more; inactive means T/C below 125%.

Test system: L1210 leukemia ip in BDF1 mice, survival T/C
Assay: NCI In Vivo Anticancer Drug Screen. Data for tumor model L1210 Leukemia (intraperitoneal) in B6D2F1 (BDF1) mice
Settings: endpoint: mean survival time, higher = longer survival
Procedure, shortened: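 Survival endpoint. Drug-treated group vs vehicle group, expressed as T divided by C. Tumor passaged by transplantation.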

[1] = dose: 100.0 mg/kg/injection, schedule: Q01DX001 (ip), vehicle: Klucel (hydroxypropylcellulose) (HPC)
[2] = dose: 200.0 mg/kg/injection, schedule: Q01DX001 (ip), vehicle: Klucel (hydroxypropylcellulose) (HPC)
[3] = dose: 100.0 mg/kg/injection, schedule: Q01DX009 (ip), vehicle: Klucel (hydroxypropylcellulose) (HPC)
[4] = dose: 200.0 mg/kg/injection, schedule: Q01DX009 (ip), vehicle: Klucel (hydroxypropylcellulose) (HPC)
[5] = dose: 400.0 mg/kg/injection, schedule: Q01DX009 (ip), vehicle: Klucel (hydroxypropylcellulose) (HPC)
[6] = dose: 100.0 mg/kg/injection, schedule: Q04DX003 (ip), vehicle: Klucel (hydroxypropylcellulose) (HPC)
[7] = dose: 200.0 mg/kg/injection, schedule: Q04DX003 (ip), vehicle: Klucel (hydroxypropylcellulose) (HPC)
[8] = dose: 400.0 mg/kg/injection, schedule: Q04DX003 (ip), vehicle: Klucel (hydroxypropylcellulose) (HPC)
[9] = dose: 100.0 mg/kg/injection, schedule: Q01DX001 (ip), vehicle: carboxymethylcellulose (CMC)
[10] = dose: 200.0 mg/kg/injection, schedule: Q01DX001 (ip), vehicle: carboxymethylcellulose (CMC)

Measured: T/C

C=CCOC(=O)c1ccccc1N
inactive: dose: 100.0 mg/kg/injection, schedule: Q01DX009 (ip), vehicle: saline with Tween-80 98 % of control | dose: 100.0 mg/kg/injection, schedule: Q04DX003 (ip), vehicle: saline with Tween-80 104 % of control | dose: 200.0 mg/kg/injection, schedule: Q01DX009 (ip), vehicle: saline with Tween-80 98 % of control | dose: 200.0 mg/kg/injection, schedule: Q04DX003 (ip), vehicle: saline with Tween-80 101 % of control

CC(=S)NC(=O)Nc1cccc2ccccc12
inactive: [1] 88 % of control | [2] 91 % of control

c1ccc(N=Nc2ccc(C3=NCCO3)cc2)cc1
inactive: [3] 91 % of control | dose: 100.0 mg/kg/injection, schedule: Q04DX003 (ip), vehicle: saline 95 % of control | [4] 88 % of control | dose: 200.0 mg/kg/injection, schedule: Q04DX003 (ip), vehicle: saline 101 % of control | [5] 87 % of control | dose: 400.0 mg/kg/injection, schedule: Q04DX003 (ip), vehicle: saline 94 % of control

Cc1cc(C)c2c(c1C)OC(C)(C)C=C2
inactive: [3] 98 % of control | [6] 98 % of control | [4] 100 % of control | [7] 107 % of control | [5] 97 % of control | [8] 100 % of control

CC(/C=N/NC(N)=O)=N\NC(N)=O
inactive: dose: 15.0 mg/kg/injection, schedule: Q01DX Z (ip), vehicle: saline 107 % of control | dose: 30.0 mg/kg/injection, schedule: Q01DX Z (ip), vehicle: saline 107 % of control | dose: 60.0 mg/kg/injection, schedule: Q01DX Z (ip), vehicle: saline 89 % of control | dose: 60.0 mg/kg/injection, schedule: Q01DX Z (oral), vehicle: saline 91 % of control | dose: 120.0 mg/kg/injection, schedule: Q01DX Z (oral), vehicle: saline 89 % of control | dose: 240.0 mg/kg/injection, schedule: Q01DX Z (oral), vehicle: saline 91 % of control | dose: 480.0 mg/kg/injection, schedule: Q01DX Z (oral), vehicle: saline 91 % of control

COC(=O)c1[nH]cnc1/N=N/N(C)C.[Cl][Cu][Cl]
inactive: dose: 9.0 mg/kg/injection, schedule: Q01DX009 (ip), vehicle: saline 106 % of control and 115 % of control | dose: 13.0 mg/kg/injection, schedule: Q01DX009 (ip), vehicle: saline 107 % of control and 108 % of control | dose: 20.0 mg/kg/injection, schedule: Q01DX009 (ip), vehicle: saline 122 % of control

CCOc1ccccc1NC(=O)c1ccccc1Cl
inactive: [3] 102 % of control | [4] 108 % of control | [5] 93 % of control

NC(=O)Nc1cc(NC(N)=O)cc(N(CCO)CCO)c1
inactive: dose: 100.0 mg/kg/injection, schedule: Q01DX009 (ip), vehicle: water 97 % of control | dose: 100.0 mg/kg/injection, schedule: Q04DX003 (ip), vehicle: water 102 % of control | dose: 200.0 mg/kg/injection, schedule: Q01DX009 (ip), vehicle: water 97 % of control | dose: 200.0 mg/kg/injection, schedule: Q04DX003 (ip), vehicle: water 102 % of control | dose: 400.0 mg/kg/injection, schedule: Q01DX009 (ip), vehicle: water 103 % of control | dose: 400.0 mg/kg/injection, schedule: Q04DX003 (ip), vehicle: water 104 % of control

COc1ccc2c[n+](C)c3c4cc(OC)c(OC)cc4ccc3c2c1
inactive: dose: 6.25 mg/kg/injection, schedule: Q04DX003 (ip), vehicle: saline with Tween-80 105 % of control | dose: 12.5 mg/kg/injection, schedule: Q04DX003 (ip), vehicle: saline with Tween-80 105 % of control | dose: 25.0 mg/kg/injection, schedule: Q04DX003 (ip), vehicle: saline with Tween-80 105 % of control

CC(C)(C)C1(C)CC1(Br)Br (centres undefined)
inactive: dose: 50.0 mg/kg/injection, schedule: Q01DX009 (ip), vehicle: saline 98 % of control | dose: 100.0 mg/kg/injection, schedule: Q01DX009 (ip), vehicle: saline 101 % of control | dose: 200.0 mg/kg/injection, schedule: Q01DX009 (ip), vehicle: saline 98 % of control

O=C(O)C1C2C=CC(C2)C1(C(=O)O)c1ccccc1 (centres undefined)
inactive: [9] 95 % of control | dose: 100.0 mg/kg/injection, schedule: Q04DX003 (ip), vehicle: carboxymethylcellulose (CMC) 98 % of control | [10] 95 % of control | dose: 200.0 mg/kg/injection, schedule: Q04DX003 (ip), vehicle: carboxymethylcellulose (CMC) 92 % of control

N=c1ccccn1CC(O)COc1ccccc1 (centres undefined)
inactive: [9] 92 % of control

COC1OC2COC(C2OS(=O)(=O)c2ccc(C)cc2)C1OS(=O)(=O)c1ccc(C)cc1 (centres undefined)
inactive: dose: 50.0 mg/kg/injection, schedule: Q04DX002 (ip), vehicle: Klucel (hydroxypropylcellulose) (HPC) 94 % of control | dose: 100.0 mg/kg/injection, schedule: Q04DX002 (ip), vehicle: Klucel (hydroxypropylcellulose) (HPC) 94 % of control | dose: 200.0 mg/kg/injection, schedule: Q04DX002 (ip), vehicle: Klucel (hydroxypropylcellulose) (HPC) 98 % of control

CCOC(=O)c1cc([N+](=O)[O-])c([N+](=O)[O-])cc1Cl
inactive: dose: 12.5 mg/kg/injection, schedule: Q04DX003 (ip), vehicle: Klucel (hydroxypropylcellulose) (HPC) 102 % of control | dose: 25.0 mg/kg/injection, schedule: Q04DX003 (ip), vehicle: Klucel (hydroxypropylcellulose) (HPC) 103 % of control | dose: 50.0 mg/kg/injection, schedule: Q04DX003 (ip), vehicle: Klucel (hydroxypropylcellulose) (HPC) 98 % of control

CCOC(=O)c1cnc(SC)nc1NCCO
inactive: [6] 97 % of control | [7] 95 % of control | [8] 97 % of control

Oc1c(Br)cc(Br)cc1/C=N/N=C/c1cc(Br)cc(Br)c1O
inactive: [1] 90 % of control | [3] 98 % of control | [6] 90 % of control | [2] 90 % of control | [7] 97 % of control | dose: 400.0 mg/kg/injection, schedule: Q01DX001 (ip), vehicle: Klucel (hydroxypropylcellulose) (HPC) 90 % of control | [5] 88 % of control | [8] 94 % of control

CCOC(=O)/C(C#N)=C(/C)C1CC1
inactive: dose: 6.25 mg/kg/injection, schedule: Q01DX009 (ip), vehicle: Klucel (hydroxypropylcellulose) (HPC) 95 % of control | dose: 12.5 mg/kg/injection, schedule: Q01DX009 (ip), vehicle: Klucel (hydroxypropylcellulose) (HPC) 105 % of control | dose: 25.0 mg/kg/injection, schedule: Q01DX009 (ip), vehicle: Klucel (hydroxypropylcellulose) (HPC) 97 % of control | dose: 75.0 mg/kg/injection, schedule: Q01DX001 (ip), vehicle: carboxymethylcellulose (CMC) 95 % of control | dose: 150.0 mg/kg/injection, schedule: Q01DX001 (ip), vehicle: carboxymethylcellulose (CMC) 105 % of control

COc1ccc(/C=N/Nc2nnc(N/N=C/c3ccc(OC)c(O)c3)c3ccccc23)cc1O
inactive: dose: 50.0 mg/kg/injection, schedule: Q01DX001 (ip), vehicle: carboxymethylcellulose (CMC) 103 % of control | [9] 103 % of control | [10] 103 % of control | dose: 400.0 mg/kg/injection, schedule: Q01DX001 (ip), vehicle: carboxymethylcellulose (CMC) 100 % of control
